In ChEMBL document CHEMBL5126523, “Recent advances in DDR (DNA damage response) inhibitors for cancer therapy” (Eur J Med Chem, 2022):
pIC50, pKi: −log10 of the molar value. Values belong to the compound of their own block, whether it stands above or below them.

Tests used:
Wee1-like protein kinase [1] = target: T1, Wee1-like protein kinase (Homo sapiens, UniProt P30291); assay: Displacement of tracer 178 from WEE1 (unknown origin) incubated for 1 hr by Lantha Screen assay
[2] = target: T2, DNA-dependent protein kinase catalytic subunit (Homo sapiens, UniProt P78527); assay: Inhibition of DNA-PK (unknown origin) assessed as inhibition constant using Glu-Pro-Pro-Leu-Ser-Gln-Glu-Ala-Phe-Ala-Asp-Leu-Trp-Lys-Lys-Lys peptide as substrate incubated for 45 mins in presence of [33P]-ATP by scintillation counting method
HCT-116 = assay: Inhibition of cell proliferation in human HCT-116 cells incubated for 72 hrs by SRB assay; format: functional, cell-based; details: HCT-116, 72 h
[3] = target: T3, Phosphatidylinositol 4,5-bisphosphate 3-kinase catalytic subunit alpha isoform (Homo sapiens, UniProt P42336); assay: Inhibition of PI3K-alpha (unknown origin) incubated for 40 mins in presence of ATP by ELISA
T3 sequence (P42336 whole entry, canonical isoform): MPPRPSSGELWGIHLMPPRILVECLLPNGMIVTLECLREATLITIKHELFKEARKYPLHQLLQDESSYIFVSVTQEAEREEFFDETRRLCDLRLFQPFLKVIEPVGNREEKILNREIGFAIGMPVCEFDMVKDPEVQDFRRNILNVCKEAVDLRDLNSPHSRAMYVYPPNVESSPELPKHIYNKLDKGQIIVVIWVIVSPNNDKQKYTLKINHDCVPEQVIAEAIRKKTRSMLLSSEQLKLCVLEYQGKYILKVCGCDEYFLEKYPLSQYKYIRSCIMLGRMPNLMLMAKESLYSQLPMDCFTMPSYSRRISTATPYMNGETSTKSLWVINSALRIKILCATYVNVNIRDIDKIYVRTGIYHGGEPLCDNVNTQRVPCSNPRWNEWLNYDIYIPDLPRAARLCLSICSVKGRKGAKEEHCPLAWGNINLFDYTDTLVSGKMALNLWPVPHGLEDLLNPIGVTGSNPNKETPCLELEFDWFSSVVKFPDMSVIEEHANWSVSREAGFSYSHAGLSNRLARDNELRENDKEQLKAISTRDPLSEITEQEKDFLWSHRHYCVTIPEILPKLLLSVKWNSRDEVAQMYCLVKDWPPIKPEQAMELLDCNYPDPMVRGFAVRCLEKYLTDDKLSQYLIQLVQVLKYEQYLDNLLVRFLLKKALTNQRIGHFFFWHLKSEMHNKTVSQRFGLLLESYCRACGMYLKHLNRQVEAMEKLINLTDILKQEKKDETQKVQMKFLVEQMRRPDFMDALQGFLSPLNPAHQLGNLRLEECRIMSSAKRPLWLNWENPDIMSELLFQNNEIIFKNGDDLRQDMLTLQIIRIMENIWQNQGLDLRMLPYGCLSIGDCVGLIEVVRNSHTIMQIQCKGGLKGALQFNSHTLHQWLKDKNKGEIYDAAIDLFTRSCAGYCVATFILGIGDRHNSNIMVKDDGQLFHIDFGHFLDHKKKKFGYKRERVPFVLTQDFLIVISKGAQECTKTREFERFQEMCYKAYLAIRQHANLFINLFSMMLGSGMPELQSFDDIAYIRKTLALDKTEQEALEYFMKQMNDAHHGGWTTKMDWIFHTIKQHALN

HCC1937 = assay: Inhibition of cell proliferation in human HCC1937 cells incubated for 72 hrs by SRB assay; format: functional, cell-based; details: HCC1937, 72 h
MDA-MB-231 = assay: Inhibition of cell proliferation in human MDA-MB-231 cells incubated for 72 hrs by SRB assay; format: functional, cell-based; details: MDA-MB-231, 72 h
[4] = Cmax in ICR mouse at 3 mg/kg, iv measured for 2 to 1440 mins; format: ADME, organism-based; design: time upper 1440 min, dose 3 mg/kg, time lower 2 min, route iv; details: in vivo
Wee1-like protein kinase [5] = target: T1, Wee1-like protein kinase; assay: Inhibition of N-terminal GST-tagged wild-type WEE1 (215 to 646 residues) (unknown origin) expressed in Sf21 insect cells incubated for 60 mins in presence of ATP by ELISA
[6] = Cmax in ICR mouse at 10 mg/kg, po measured for 5 to 1440 mins; format: ADME, organism-based; design: time upper 1440 min, dose 10 mg/kg, time lower 5 min, route po; details: in vivo
[7] = AUC (0 to last) in ICR mouse at 10 mg/kg, po measured for 5 to 1440 mins; format: ADME, organism-based; design: time 5-1440 min, dose 10 mg/kg, route po; details: in vivo
[8] = Tmax in ICR mouse at 3 mg/kg, iv measured for 2 to 1440 mins; format: ADME, organism-based; details: in vivo, time 2-1440 min
[9] = AUC (0 to last) in ICR mouse at 3 mg/kg, iv measured for 2 to 1440 mins; format: ADME, organism-based; design: time 2-1440 min, dose 3 mg/kg, route iv; details: in vivo
[10] = Oral bioavailability in ICR mouse at 10 mg/kg measured for 5 to 1440 mins; format: ADME, organism-based; details: in vivo, time 5-1440 min
[11] = Half life in ICR mouse at 10 mg/kg, po measured for 5 to 1440 mins; format: ADME, organism-based; details: in vivo, time 5-1440 min
[12] = Tmax in ICR mouse at 10 mg/kg, po measured for 5 to 1440 mins; format: ADME, organism-based; details: in vivo, time 5-1440 min
[13] = Half life in ICR mouse at 3 mg/kg, iv measured for 2 to 1440 mins; format: ADME, organism-based; details: in vivo, time 2-1440 min
[14] = target: T4, Poly [ADP-ribose] polymerase 1 (Homo sapiens, UniProt P09874); assay: Inhibition of PARP1 (unknown origin) incubated for 1 hr by chemiluminescence assay
T4 sequence (P09874 whole entry): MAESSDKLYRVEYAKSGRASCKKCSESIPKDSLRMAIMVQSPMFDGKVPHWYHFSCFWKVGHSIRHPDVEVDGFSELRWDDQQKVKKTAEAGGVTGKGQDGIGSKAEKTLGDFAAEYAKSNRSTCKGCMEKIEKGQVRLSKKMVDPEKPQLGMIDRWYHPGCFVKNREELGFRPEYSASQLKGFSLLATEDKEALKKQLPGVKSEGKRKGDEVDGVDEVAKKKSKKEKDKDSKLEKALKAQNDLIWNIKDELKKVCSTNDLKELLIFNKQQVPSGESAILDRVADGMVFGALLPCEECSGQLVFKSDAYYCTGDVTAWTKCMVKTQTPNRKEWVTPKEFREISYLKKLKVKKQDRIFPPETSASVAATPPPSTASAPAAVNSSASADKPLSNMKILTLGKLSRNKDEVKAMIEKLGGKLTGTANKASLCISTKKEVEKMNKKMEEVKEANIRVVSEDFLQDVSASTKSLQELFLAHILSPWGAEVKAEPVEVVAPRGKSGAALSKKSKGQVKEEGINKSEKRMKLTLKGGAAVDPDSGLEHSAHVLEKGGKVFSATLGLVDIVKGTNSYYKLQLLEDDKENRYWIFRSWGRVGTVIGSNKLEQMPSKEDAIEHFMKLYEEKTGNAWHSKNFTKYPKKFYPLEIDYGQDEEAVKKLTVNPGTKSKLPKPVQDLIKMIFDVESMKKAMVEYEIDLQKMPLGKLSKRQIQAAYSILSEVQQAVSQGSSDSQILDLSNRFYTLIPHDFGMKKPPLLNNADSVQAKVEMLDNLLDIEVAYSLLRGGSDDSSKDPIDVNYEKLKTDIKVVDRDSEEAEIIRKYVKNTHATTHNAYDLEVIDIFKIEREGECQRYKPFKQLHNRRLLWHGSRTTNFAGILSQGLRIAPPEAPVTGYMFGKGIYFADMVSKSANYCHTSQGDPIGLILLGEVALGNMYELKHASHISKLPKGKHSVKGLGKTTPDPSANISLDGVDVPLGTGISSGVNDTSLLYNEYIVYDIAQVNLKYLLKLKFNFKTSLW

ATR/ATRIP [15] = target: T5, ATR/ATRIP (Homo sapiens, UniProt Q13535); assay: Inhibition of full-length human recombinant FLAG-tagged ATR/c-Myc-tagged ATRIP using p53 as substrate incubated for 30 mins in presence of ATP by HTRF assay; format: protein-complex assay
LoVo = assay: Inhibition of cell growth in human LoVo cells assessed as measuring ATP content incubated for 3 days by Cell Titer Glo assay; format: functional, cell-based; details: 72 h
[16] = target: T2, DNA-dependent protein kinase catalytic subunit; assay: Inhibition of full-length human DNA-PK expressed in baculovirus expression system using p53 as substrate incubated for 1 hr in presence of ATP by ELISA
[17] = target: T6, Serine-protein kinase ATM (Homo sapiens, UniProt Q13315); assay: Inhibition of ATM in human MCF7 cells […] incubated for 1 hr by Cell Western assay; format: cell-based
T6 sequence (Q13315 whole entry): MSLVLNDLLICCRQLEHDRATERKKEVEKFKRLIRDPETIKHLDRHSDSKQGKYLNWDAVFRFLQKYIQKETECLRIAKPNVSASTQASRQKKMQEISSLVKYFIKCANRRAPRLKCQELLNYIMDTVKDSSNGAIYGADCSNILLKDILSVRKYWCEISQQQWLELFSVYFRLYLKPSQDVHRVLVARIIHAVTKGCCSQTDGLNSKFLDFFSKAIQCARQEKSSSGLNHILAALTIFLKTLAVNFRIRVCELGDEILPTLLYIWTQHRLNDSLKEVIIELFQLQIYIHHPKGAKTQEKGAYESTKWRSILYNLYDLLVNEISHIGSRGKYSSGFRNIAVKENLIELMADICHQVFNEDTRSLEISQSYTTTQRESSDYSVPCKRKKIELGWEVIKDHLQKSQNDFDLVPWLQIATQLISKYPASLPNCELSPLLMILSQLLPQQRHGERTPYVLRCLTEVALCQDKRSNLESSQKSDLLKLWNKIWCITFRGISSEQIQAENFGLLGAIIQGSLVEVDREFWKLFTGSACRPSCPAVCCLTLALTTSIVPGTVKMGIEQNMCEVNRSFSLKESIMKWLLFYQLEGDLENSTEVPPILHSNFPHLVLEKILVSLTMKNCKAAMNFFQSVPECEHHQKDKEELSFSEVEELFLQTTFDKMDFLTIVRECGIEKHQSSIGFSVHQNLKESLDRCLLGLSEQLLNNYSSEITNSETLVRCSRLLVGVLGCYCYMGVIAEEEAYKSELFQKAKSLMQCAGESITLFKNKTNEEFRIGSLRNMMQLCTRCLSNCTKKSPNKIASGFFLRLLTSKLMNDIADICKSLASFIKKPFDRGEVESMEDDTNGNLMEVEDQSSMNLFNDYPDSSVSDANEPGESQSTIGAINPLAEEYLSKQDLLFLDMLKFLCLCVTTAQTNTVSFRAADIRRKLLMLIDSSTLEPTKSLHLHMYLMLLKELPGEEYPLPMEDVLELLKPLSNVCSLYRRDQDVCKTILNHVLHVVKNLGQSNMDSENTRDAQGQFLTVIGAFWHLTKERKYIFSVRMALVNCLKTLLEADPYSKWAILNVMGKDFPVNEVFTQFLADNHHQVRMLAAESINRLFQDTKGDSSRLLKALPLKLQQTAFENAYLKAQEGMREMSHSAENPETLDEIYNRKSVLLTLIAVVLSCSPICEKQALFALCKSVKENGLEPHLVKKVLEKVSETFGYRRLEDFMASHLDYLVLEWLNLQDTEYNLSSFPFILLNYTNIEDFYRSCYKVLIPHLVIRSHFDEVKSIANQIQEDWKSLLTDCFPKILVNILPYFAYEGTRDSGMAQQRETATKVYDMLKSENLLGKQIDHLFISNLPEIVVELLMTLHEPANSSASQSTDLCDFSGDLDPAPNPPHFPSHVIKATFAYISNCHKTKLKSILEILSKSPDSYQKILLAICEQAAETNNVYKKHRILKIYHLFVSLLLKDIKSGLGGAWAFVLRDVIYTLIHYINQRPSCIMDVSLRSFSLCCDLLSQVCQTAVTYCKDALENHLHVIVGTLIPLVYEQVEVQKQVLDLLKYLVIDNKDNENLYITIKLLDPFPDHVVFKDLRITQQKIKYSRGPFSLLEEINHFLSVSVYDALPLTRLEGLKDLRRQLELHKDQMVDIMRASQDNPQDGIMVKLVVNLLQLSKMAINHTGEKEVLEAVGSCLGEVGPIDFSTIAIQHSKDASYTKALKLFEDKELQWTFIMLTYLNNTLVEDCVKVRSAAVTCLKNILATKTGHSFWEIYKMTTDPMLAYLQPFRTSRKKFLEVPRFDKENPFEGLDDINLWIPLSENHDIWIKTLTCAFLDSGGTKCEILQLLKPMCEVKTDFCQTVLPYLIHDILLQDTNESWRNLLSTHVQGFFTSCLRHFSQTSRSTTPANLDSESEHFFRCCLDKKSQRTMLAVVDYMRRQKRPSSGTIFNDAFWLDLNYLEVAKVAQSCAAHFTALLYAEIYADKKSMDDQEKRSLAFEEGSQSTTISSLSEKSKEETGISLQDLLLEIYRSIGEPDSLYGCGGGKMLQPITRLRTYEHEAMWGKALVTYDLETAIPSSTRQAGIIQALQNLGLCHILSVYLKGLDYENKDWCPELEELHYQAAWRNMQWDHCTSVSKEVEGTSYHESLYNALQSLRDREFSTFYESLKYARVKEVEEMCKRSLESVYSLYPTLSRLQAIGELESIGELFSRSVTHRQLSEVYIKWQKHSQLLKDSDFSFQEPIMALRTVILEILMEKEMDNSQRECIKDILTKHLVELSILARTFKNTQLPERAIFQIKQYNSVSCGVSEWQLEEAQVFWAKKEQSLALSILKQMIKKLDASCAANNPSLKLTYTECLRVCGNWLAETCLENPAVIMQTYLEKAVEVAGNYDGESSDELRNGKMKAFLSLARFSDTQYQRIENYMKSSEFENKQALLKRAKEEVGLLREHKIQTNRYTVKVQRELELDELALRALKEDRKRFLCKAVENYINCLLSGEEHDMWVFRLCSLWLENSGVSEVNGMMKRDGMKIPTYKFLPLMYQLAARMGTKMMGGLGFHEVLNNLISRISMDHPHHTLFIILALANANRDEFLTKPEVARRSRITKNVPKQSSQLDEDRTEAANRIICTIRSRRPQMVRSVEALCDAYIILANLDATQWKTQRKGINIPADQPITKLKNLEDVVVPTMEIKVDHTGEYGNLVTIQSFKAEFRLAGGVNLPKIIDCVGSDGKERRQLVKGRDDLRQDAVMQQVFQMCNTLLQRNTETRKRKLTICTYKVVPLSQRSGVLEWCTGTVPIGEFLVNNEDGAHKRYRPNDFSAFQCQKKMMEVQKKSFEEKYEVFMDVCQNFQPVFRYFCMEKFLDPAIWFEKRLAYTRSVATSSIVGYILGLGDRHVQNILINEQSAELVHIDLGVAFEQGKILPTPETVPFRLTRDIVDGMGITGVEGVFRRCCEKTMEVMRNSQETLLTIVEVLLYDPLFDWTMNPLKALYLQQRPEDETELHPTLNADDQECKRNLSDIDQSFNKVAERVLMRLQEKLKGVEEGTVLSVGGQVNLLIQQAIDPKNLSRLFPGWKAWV

[18] = target: T2, DNA-dependent protein kinase catalytic subunit; assay: Inhibition of DNA-PK (unknown origin) incubated for 3 hrs by ADP-Glo kinase assay
[19] = target: Poly [ADP-ribose] polymerase tankyrase-2 (Homo sapiens, UniProt Q9H2K2); assay: Inhibition of tankyrase 2 (unknown origin) incubated for 1 hr by chemiluminescence based assay
[20] = target: Poly [ADP-ribose] polymerase tankyrase-1 (Homo sapiens, UniProt O95271); assay: Inhibition of tankyrase 1 (unknown origin) incubated for 1 hr by chemiluminescence assay
NCI-H1299 = assay: Inhibition of cell proliferation in human NCI-H1299 cells incubated for 3 days by MTT assay; format: functional, cell-based; details: NCI-H1299, 72 h
[21] = target: T4, Poly [ADP-ribose] polymerase 1; assay: Inhibition of PARP1 (unknown origin) by ELISA
[22] = Oral bioavailability in BALB/c mouse at 2 mg/kg by LC-MS/MS analysis; format: ADME, organism-based; details: in vivo
ATR/ATRIP [23] = target: T5, ATR/ATRIP; assay: Inhibition of human FLAG-tagged ATR/c-Myc-tagged ATRIP expressed in mammalian expression system using p53 as substrate incubated for 2 hrs by fluorescence based assay
[24] = target: Serine/threonine-protein kinase ATR (Homo sapiens, UniProt Q13535); assay: Inhibition of ATR (unknown origin)
[25] = target: T6, Serine-protein kinase ATM; assay: Inhibition of ATM (unknown origin)
Homo sapiens [26] = organism: Homo sapiens; assay: Selectivity index, ratio of IC50 for ATM (unknown origin) to IC50 for PI3K-alpha (unknown origin)
Homo sapiens [27] = organism: Homo sapiens; assay: Selectivity index, ratio of IC50 for ATM (unknown origin) to IC50 for ATR (unknown origin)
[28] = target: Serine/threonine-protein kinase mTOR (Homo sapiens, UniProt P42345); assay: Inhibition of mTOR (unknown origin)
Homo sapiens [29] = organism: Homo sapiens; assay: Selectivity index, ratio of IC50 for ATM (unknown origin) to IC50 for mTOR (unknown origin)
[30] = target: T3, Phosphatidylinositol 4,5-bisphosphate 3-kinase catalytic subunit alpha isoform; assay: Inhibition of PI3K-alpha (unknown origin)

Compound: C=CCn1c(=O)c2cnc(Nc3ccc4c(c3)OC[C@@H]3C[C@@H](N(C)C)CN43)nc2n1-c1ccc(C(C)(C)O)cn1
- pIC50 (Wee1-like protein kinase [1]): 8.32

Compound: C=CCn1c(=O)c2cnc(Nc3ccc(N4C[C@H]5CN(C)C[C@H]5C4)cc3)nc2n1-c1ccc(C(C)(C)O)cn1
- Cmax [4]: 241 nM
- pIC50 (Wee1-like protein kinase [5]): 8.74
- Cmax [6]: 121 nM
- AUC(0-t) [7]: 409 ng·h/mL
- Tmax [8]: 1.8 min
- AUC(0-t) [9]: 191 ng·h/mL
- bioavailability [10]: 64.3%
- half-life [11]: 79.2 min
- Tmax [12]: 1.33 h
- half-life [13]: 55.2 min

Compound: NC(=O)c1cccc2cc(C(=O)N3CCN(c4nc(-c5cnc(N)nc5)nc(N5CCOCC5)n4)CC3)oc12
- pIC50 (HCT-116): 7.03
- pIC50 [3]: 8.24
- pIC50 (HCC1937): 7.21
- pIC50 (MDA-MB-231): 5.39
- pIC50 [14]: 8.20

Compound: C[C@@H]1COCCN1c1nc(-c2nncc3[nH]ccc23)nc2c1OC1CC2(S(C)(=O)=O)C1
- pIC50 (ATR/ATRIP [15]): 6.98
- pIC50 (LoVo): 7.69

Compound: Cc1ncc(-c2cc(NC[C@@H](C)c3cccc4c(-c5noc(=O)[nH]5)ccnc34)ncn2)cn1
- pIC50 [18]: 7.41

Compound: C[C@@H]1COCCN1c1nc(-c2c(N)ncc3[nH]ccc23)nc2c1OC1CC2(S(C)(=O)=O)C1
- pIC50 (ATR/ATRIP [15]): 7.21
- pIC50 (LoVo): 8.87

Compound: C=CCn1c(=O)c2cnc(Nc3ccc4c(c3)OC[C@@H]3CN(C)CCN43)nc2n1-c1ccc(C(C)(C)O)cn1
- pIC50 (Wee1-like protein kinase [1]): 8.60

Compound: C[C@H]1CN(C(=O)c2cc(Cc3n[nH]c(=O)c4c3CCCC4)ccn2)CCN1C(=O)C(=O)C1CC1
- pIC50 [21]: > 6.70

Compound: Cc1cc2ncnn2cc1Nc1ncc2c(n1)C1(CCC(C)(C)CC1)C(=O)N2C
- bioavailability [22]: 114%

Compound: C[C@@H]1COC[C@H]2COc3c(nc(-c4ccnc5[nH]ccc45)nc3C3(C#N)CC3)N21
- pIC50 (ATR/ATRIP [23]): 8.00
- pIC50 (LoVo): 6.34

Compound: CC(C)(C)CC(=O)C(=O)N1CCN(C(=O)c2cc(Cc3n[nH]c(=O)c4c3CCCC4)ccc2F)CC1
- pIC50 [21]: > 6.70

Continued, values first:

- pKi [2]: > 7.00
Compound: C[C@@H]1CN(c2cc(O[C@H]3CC[C@@H](Nc4ncccn4)CC3)c3nccnc3c2)CCO1

- pIC50 (HCT-116): 6.47
- pIC50 [3]: 7.09
- pIC50 (HCC1937): 6.58
- pIC50 (MDA-MB-231): 5.48
Compound: Nc1cc(C(F)(F)F)c(-c2nc(N3CCOCC3)nc(N3CCN(C(=O)c4cc(Cc5n[nH]c(=O)c6ccccc56)ccc4F)CC3)n2)cn1

- pIC50 [16]: 9.00
- pIC50 [17]: 9.00
Compound: CN(C)CCCOc1ncc(-c2ccc3ncc4c(c3c2)C2(CCC2)C(=O)N4C)cc1NS(=O)(=O)C(F)(F)F

- pIC50 [19]: 8.38
- pIC50 [14]: 9.60
- pIC50 [20]: 7.87
Compound: COc1ccc(NC(=O)c2ccc(NC(=O)N3CCN(C(=O)c4cc(Cc5n[nH]c(=O)c6ccccc56)ccc4F)CC3)cc2)cc1

- pIC50 (NCI-H1299): 6.98
Compound: C[C@@H]1CN(c2ccc(Nc3cc4c(cn3)C(=O)N(c3c(Cl)cccc3Cl)C3=NCCN34)cc2)C[C@H](C)N1C

- pIC50 [16]: 9.00
- pIC50 [17]: 9.00
Compound: CCc1ncc(S(=O)(=O)Nc2cc(-c3ccc4ncc5c(c4c3)C3(CCC3)C(=O)N5C)cnc2OCCCN(C)C)s1

- pKi [2]: > 7.00
Compound: O=c1[nH]c(N[C@H]2CC[C@@H](Oc3cc(N4CCOCC4)cc4nccnc34)CC2)ncc1F

- pIC50 [24]: < 4.52
- pIC50 [25]: 8.80
- Ratio IC50 (Homo sapiens [26]): > 1000
- Ratio IC50 (Homo sapiens [27]): > 1000
- pIC50 [28]: < 5.00
- Ratio IC50 (Homo sapiens [29]): > 1000
- pIC50 [30]: < 5.00
Compound: CC(C)n1c(=O)n(C)c2cnc3ccc(-c4ccc(OCCCN5CCCC5)nc4)cc3c21
